Test results: PubChem BioAssay AID493003 (Sanford-Burnham Center for Chemical Genomics, 2010)
Calls of active or inactive are those of the source. No rule for the calls is given here.

Test system: S. cerevisiae tim10-1 mutant growth, luminescence
Test: tim10-1 yeast growth inhibition potency – luminescence, S. cerevisiae, uHTS hits, dose response (AID 493003);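 also: yeast growth measured after about 22 hours at 25 °C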

| Compound | IC50 |
| --- | --- |
| O=[N+]([O-])c1ccc(Sc2cccc3cccnc23)c([N+](=O)[O-])c1 | 78.7 µM |
| COc1ccc(CCNC(=O)NC23CC4CC(CC(C4)C2)C3)cc1 | 51 µM |
| N/C(=N\OC(=O)CCCc1ccccc1)c1ccccc1 | 19.9 µM |
| CCCCN1/C(=C/c2ccc3ccccc3[n+]2CC)Sc2ccccc21 | 19.2 µM |
| COc1cc(OC)c(C(=O)O/N=C(\N)c2cccc(C)c2)cc1OC | 17.7 µM |
| Cc1ccc(NC(=S)NNC(=O)CSc2nc3ccccc3c(=O)n2-c2ccc(C)cc2)cc1 | 44.9 µM |
| Cn1ncc2c(Nc3ccc(Br)cc3)nc(Nc3ccc(Br)cc3)nc21 | 18.7 µM |
| CC1CCN(C(=O)CCc2ccc(Oc3cc([N+](=O)[O-])cc([N+](=O)[O-])c3)cc2)CC1 | 50.1 µM |
| CN1C(=O)C(O)(CC(=O)c2cccc(-n3cccc3)c2)c2ccccc21 (stereo unspecified) | 40 µM |
| C=CC(=O)Oc1ccc(N2Cc3ccccc3C2=O)cc1 | 7.16 µM |
| COc1ccc2sc(-c3ccc(S(C)(=O)=O)cc3)c(C#CCO)c2c1 | 24.2 µM |
| CN1CCN(c2ccccc2NC(=O)c2ccc(-c3ccc(Cl)c(Cl)c3)o2)CC1 | 15.1 µM |
| O=[N+]([O-])c1ccccc1N/N=C/c1c[nH]c2ccccc12 | 13.8 µM |
| O=C(CN1CCN(S(=O)(=O)c2ccc(F)cc2)CC1)Nc1ccc(Cl)c(C(F)(F)F)c1 | 18.8 µM |
| COc1ccc(C(=O)C(CN2CCCC2)c2ccccc2)cc1 (stereo unspecified) | 19 µM |
| COc1ccc(C2(O)CC3CCC(C2)N3c2cc(C)nc(-c3ccccc3)n2)cc1 (stereo unspecified) | 18.2 µM |
| CC(C)(C)C(=O)NCCN1C(=O)S/C(=C\c2ccc([N+](=O)[O-])cc2)C1=O | 32.3 µM |
| Nc1nc(-c2ccc(Br)s2)c(Br)s1 | 23.5 µM |
| O=C(Nc1ccc(N2CCN(C(=O)c3ccccc3F)CC2)cc1)c1cncc(Br)c1 | 41.3 µM |
| COc1ccc(/C=N/n2c(=S)n(C)c3ccccc32)cc1OC | 36.1 µM |
| CC(C)(C)c1ccc(-c2cc(-c3ccccc3O)[nH]n2)cc1 | 38.9 µM |
| O=C(Nc1ccc(F)cc1)c1cccc2c1C(=O)N(Cc1ccccn1)C2 | 18 µM |
| CCOc1ccc(-c2n[nH]c(C)c2Oc2ccc(OC)cc2)c(O)c1 | 16.4 µM |
| CCCc1ccc(-c2c(C)sc(N)c2C#N)cc1 | 19.2 µM |

| Compound | IC50 |
| --- | --- |
| Cc1cc(N(CCO)CCO)ccc1N=Nc1cc(F)ccc1F | 26.1 µM |
| Cc1cc([N+](=O)[O-])ccc1-c1ccc(C2Nc3ccccc3C(=O)N2O)o1 (stereo unspecified) | 12.4 µM |
| O=C1c2cccc3cccc(c23)C(=O)N1CCN1CCN(CC(O)COc2ccc3ccccc3c2)CC1 (stereo unspecified) | 19.3 µM |
| Clc1ccccc1OCc1nnc(-c2ccccc2Br)o1 | 27.9 µM |
| CC/C(=N\NC(=S)Nc1cc(C)ccc1C)c1ccc(OC(F)F)cc1 | 34.9 µM |
| N#C/C(=C/c1ccc(N2CCCCCC2)o1)c1cccc(F)c1 | 14.9 µM |
| Fc1ccccc1CNc1cc(Cl)cc(Cl)c1 | 26 µM |
| C/C(=N\N=C1\NC(=O)C(CC(=O)Nc2ccc(C)c(Cl)c2)S1)C(C)(C)C (stereo unspecified) | 47.3 µM |
| C=CCNC(=S)NNc1nc2c(c(=O)[nH]1)C1(CCCCC1)Cc1ccccc1-2 | 40.3 µM |
| C=CCNC(=S)NNc1nc2c(c(=O)[nH]1)C1(CCCC1)Cc1ccccc1-2 | 27.7 µM |
| Cc1ccc(C(=O)N2CCN(c3ccc(NC(=O)c4ccc(Br)o4)cc3)CC2)cc1 | 32.2 µM |
| CCn1c(CSc2nc3ccccc3s2)n[nH]c1=S | 49.4 µM |
| C(=N\N1CCOCC1)/c1cn(-c2ccccc2)nc1-c1ccccc1 | 33.7 µM |
| C=CC(C)(C)c1c(O)c(CC=C(C)C)c(O)c2c(=O)c3ccc(O)c(O)c3oc12 | 30.7 µM |
| Cc1cccc(NC(=S)N/N=C2/CCCCc3ccccc32)c1 | 9.98 µM |
| Fc1c(F)c(C(F)(F)F)c(F)c(F)c1N/N=C\c1cccs1 | 11 µM |
| O=C(/C=C/c1ccccc1)CC(O)(c1ccccc1)C(F)(F)C(F)F (stereo unspecified) | 16.3 µM |
| Cc1ccnn2cc3c(=O)n(C)c(=O)n(C)c3c12 | 63.1 µM |
| CCOC(=O)c1c(-c2ccccc2)csc1NC(=S)NC | 44.7 µM |
| NC(=O)C1CCN(C2CC(=O)N(c3ccc(F)c(Cl)c3)C2=O)CC1 (stereo unspecified) | 21.3 µM |
| COc1ccccc1N1CCN(C(=O)c2cc3sccc3n2C)CC1 | 34.6 µM |
| O=C(/C(N=Nc1cccc(C(F)(F)F)c1)=C(/O)c1cccs1)C(F)(F)F | > 100 µM (inactive) |
| CC(C)(C)c1cc(C(=O)N/N=C/c2ccc(F)cc2)n(-c2ccccc2)n1 | 36.4 µM |
| COC(=O)c1ccc(N2C(=O)CC(N(C)CCc3ccc(OC)c(OC)c3)C2=O)cc1 (stereo unspecified) | 18.6 µM |

| Compound | IC50 |
| --- | --- |
| Cc1nc(SCC(=O)N2CCN(c3ccccc3)CC2)c2oc3ccccc3c2n1 | 40.7 µM |
| Cc1ccc(NC(=O)c2ccc([N+](=O)[O-])o2)c(C)c1 | 15.7 µM |
| CSc1ccc2nnc(-c3cccc(F)c3)n2n1 | 29.6 µM |
| COC(C/C=C/C(=O)COCc1ccccc1)OC | 37.2 µM |
| O=C(/C=C\c1ccc(-c2ccccc2)o1)c1ccccc1 | 5.47 µM |
| CCOC(=O)N1CCN(S(=O)(=O)c2ccc3c(c2)CCN3C(=O)C2CCC2)CC1 | 34.2 µM |
| CCOC(=O)c1cc(-c2cccs2)nc2c1c(C)nn2-c1ccccn1 | 11 µM |
| Cc1nn(C)c(C(=O)NC(=S)Nc2ccc([N+](=O)[O-])cc2)c1Cl | 74.5 µM |
| CC1=C/C(=N\OS(=O)(=O)c2ccccc2)C=CC1=O | 0.46 µM |
| Cc1ccc(OCC(=O)O/N=C(\N)Cc2ccc([N+](=O)[O-])cc2)cc1C | 25.1 µM |
| CCn1c(SCc2c(F)cccc2Cl)nnc1-c1ccco1 | 24.3 µM |
| CCOc1cc(/C=C/C(=O)c2ccc(C)cc2)ccc1OCC(=O)N(C)C | 22 µM |
| Cc1ccccc1C(=O)NC(=S)Nc1ccccc1N1CCCC1 | 17.3 µM |
| O=C(c1ccc2c(c1)OCCO2)N1CCN(c2ncc(C(F)(F)F)cc2Cl)CC1 | 68.8 µM |
| O=C(Nc1ccccc1Cl)C(Cl)C(=O)c1ccccc1 (stereo unspecified) | 70.1 µM |
| Fc1ccccc1CNC(=S)Nc1cccc(C(F)(F)F)c1 | 10.5 µM |
| CN(C)CCCN1c2ccccc2CCc2ccc(Cl)cc21 | 37.8 µM |
| COc1ccc(C)cc1NC(=O)NCCC1=CCCCC1 | 32.2 µM |
| Cc1cccc2nc(COc3ccc(Cl)c4cccnc34)cn12 | 44.7 µM |
| Cc1cc(Nc2ccccc2Cl)nc(-c2ccccc2O)n1 | 33.2 µM |
| N/C(=N\OC(=O)c1cccc(Cl)c1)c1ccccn1 | 26.7 µM |
| CC1=NN(c2nc(-c3ccc(Cl)cc3)cs2)C(=O)C1 | 33.5 µM |
| Nc1cc(Cl)ccc1Oc1ccc2ccccc2c1 | 23.1 µM |
| COc1ccc(OCC(=O)O/N=C(\N)Cc2ccc(Cl)cc2)cc1 | 38.4 µM |

| Compound | IC50 |
| --- | --- |
| O=C(NC(=S)Nc1cccc(C(F)(F)F)c1)c1csnn1 | 26 µM |
| CCCCOc1cccc(-c2cc(C(=O)NNC(=S)NCC)c3ccccc3n2)c1 | 89.3 µM |
| O=C(CSCC(=O)N1CCCCC1)Nc1nc(-c2ccc(Cl)s2)cs1 | 37.9 µM |
| Oc1ccc(-c2nccc(-c3ccc(Cl)cc3Cl)n2)cc1 | 37.1 µM |
| O=C(NNC(=S)Nc1cccc(C(F)(F)F)c1)c1ccc(Cl)cc1Cl | 8.5 µM |
| COc1ccc(NS(=O)(=O)c2ccc3oc4ccccc4c3c2)cn1 | 28.3 µM |
| Cc1ccc(OCC(=O)O/N=C(\N)Cc2ccc(Cl)cc2)cc1 | 9.22 µM |
| COc1ccc(C(CCNC(C)c2ccccc2)c2ccc(F)cc2)cc1 (stereo unspecified) | 20.6 µM |
| Cc1cc(N2C3CCC2CC(O)(c2ccc(F)cc2)C3)nc(-c2ccccc2)n1 (stereo unspecified) | 25.4 µM |
| Cc1ccccc1NC(=S)N(Cc1ccccn1)Cc1ccccc1Cl | 20.9 µM |
| CCCN(CC1COc2ccccc2O1)C(=S)Nc1ccc(C)cc1 (stereo unspecified) | 33.5 µM |
| Cc1ccc2nc(N3CCN(Cc4nnnn4Cc4ccccc4)CC3)c(C#N)cc2c1 | 81.3 µM |
| COc1ccc(C(=O)Nc2ccc(-n3nncc3C(C)(C)C)cc2)cc1 | 16.4 µM |
| CCCC(=O)Nn1cnc2c(c1=O)C1(CCCC1)Cc1ccccc1-2 | 75.2 µM |
| COc1ccc(C(=O)Nc2ccc(S(=O)(=O)N3CCCCC3)cc2)cc1OC | 27.9 µM |
| CCOC(=O)c1cnc2ccc(OC)cc2c1Nc1ccc2c(c1)OCCO2 | 79.3 µM |
| Cc1cc(C)cc(OCCCOc2cccc3cccnc23)c1 | 32.4 µM |
| Cc1ccc(-n2cc(-c3ccc([N+](=O)[O-])cc3)[nH]c2=S)c(C)c1 | 87.4 µM |
| N/C(=N\OC(=O)c1ccc(F)cc1)c1ccc(Br)cc1 | 6.61 µM |
| Cc1sc2ncnc(N3CCN(CCOc4ccc(Cl)cc4)CC3)c2c1C | 38.2 µM |
| S=C1NC(c2cccs2)=CC(c2ccc(Br)cc2)N1 (stereo unspecified) | 18.1 µM |
| Clc1ccccc1Nc1nnc(-c2ccncc2)s1 | 52.7 µM |
| N/C(=N\OC(=O)CCCOc1ccc(Cl)cc1Cl)c1ccncc1 | 47.6 µM |
| Cc1c(Cl)c([N+](=O)[O-])nn1Cc1ccc(C(=O)Nc2ccc(Cl)cn2)o1 | 47.6 µM |

| Compound | IC50 |
| --- | --- |
| O=C(NC(=S)NNC(=O)c1ccccc1[N+](=O)[O-])c1ccc(Br)cc1 | 10.1 µM |
| Cc1ccc(C(=O)c2no[n+]([O-])c2C(=O)c2ccc(C)cc2)cc1 | 15.3 µM |
| CCCCCCC(=O)N(O)C1CC(=O)N(c2ccc(C)cc2)C1=O (stereo unspecified) | 12.2 µM |
| CC(C)C(=O)Nc1ccc(-c2nc3ccccc3c(=O)o2)cc1 | 36.5 µM |
| Nc1cccc(Nc2nc(OC(C(F)(F)F)C(F)(F)F)nc(OC(C(F)(F)F)C(F)(F)F)n2)c1 | 39.6 µM |
| O=C(Nc1cccc(C(F)(F)F)c1)c1cccnc1NCCc1ccccc1 | 46.6 µM |
| Oc1ccccc1-c1nc(NCc2cccnc2)c2ccccc2n1 | 60.5 µM |
| CCOc1cc(-c2c(C#N)c(N)nc3c2CCCC3C)ccc1O (stereo unspecified) | 43.8 µM |
| CN(C1CCCCC1)S(=O)(=O)c1ccc(NC(=O)c2ccco2)cc1 | 38 µM |
| Cc1ccccc1NC1=NC(=S)N(c2ccccc2)C12CCCCC2 | 14.7 µM |
| COc1ccc(N2C(=O)CC(Sc3nc4ccccc4s3)C2=O)cc1 (stereo unspecified) | 32.5 µM |
| Cc1nn(Cc2ccc(Cl)cc2)c(C)c1NC(=O)c1c(-c2ccccc2)noc1C | 76.1 µM |
| O=c1c2[nH]c3ccc(F)cc3c2nc2n1CCS2 | 27.8 µM |
| COc1ccc(Cl)cc1NC(=S)NCCSc1ccc(C)cc1 | 17.6 µM |
| O/N=C(\c1ccc(Cl)cc1Cl)c1ncc(C(F)(F)F)cc1Cl | 19.6 µM |
| Cc1ccc(OCCOc2cccc(Br)c2)c([N+](=O)[O-])n1 | 69.2 µM |
| Clc1cccc(CN2CCc3c([nH]c4ccccc34)C2)c1 | 30.7 µM |
| O=C(ON=C1CCN(S(=O)(=O)c2ccccc2)CC1)c1ccc(F)cc1 | 26.4 µM |
| Nc1nc(Cl)cc(N2CCC(c3cc(-c4ccc(Cl)cc4)n[nH]3)CC2)n1 | 17.8 µM |
| O=C(Nc1ccc(OCC(F)(F)C(F)F)c(C(F)(F)F)c1)c1ccc(Cl)cc1 | 52.8 µM |
